Experimental data: US9585865B2, “Small molecule modulators of the cold and menthol receptor TRPM8” (B.R.A.I.N. Biotechnology Research and Information Network AG, priority 2011, dated 2017)
Where “and” joins values, the source holds several entries; their conditions need not be identical. Identical values can stand only once.

How the values were obtained:
human TRPM8 = target: T1, human TRPM8 (Homo sapiens, UniProt Q7Z2W7); test: functional cell based calcium assay, cells recombinantly expressing human TRPM8; conditions: for EC50: activator (agonist) of TRPM8, intracellular calcium, calcium-sensitive dye fluorescence; for EC50 as activator of TRPM8 times lower than EC50 as activator of TRPA1: ratio EC50 TRPA1 / EC50 TRPM8
T1 construct: expressed in transfected cells; host or cells: HEK293 (human cells)
Text: (§1) As used herein, a functional cell based assay under standard conditions means evaluating the cellular activity of compounds with regard to the modulation of the intracellular calcium level using cells recombinantly expressing human TRPM8 or human TRPA1. In particular, in this context the term “standard conditions” means an activity test using HEK293 cells recombinantly expressing either human TRPM8 or human TRPA1, which cells have been contacted with a calcium-sensitive dye (such as Fluo-4AM, i.e. Fluo-4-acetoxymethylester), wherein the cells are incubated with the compound to be tested, and receptor modulation is quantitatively detected by calcium-dependent changes is fluorescence intensity. Such a test system is disclosed, inter alia, in Behrendt H J et al., Br. J. Pharmacol. 2004, 141:737-745, which is enclosed herein by reference.
(§2) A screening for novel modulators of TRPM8 was conducted. For the screening, a routine screening setup was used. In particular, the compounds comprised by a compound library were tested for agonistic activity towards TRPM8 and a dose response analysis of the most promising candidates was conducted (TRPM8 versus TRPA1). In particular, promising candidates were analyzed with regard to their EC50 values as well as their efficacy values, and 7 development candidates were selected (i.e. Compounds I.3, II.3, III.3, IV.3, V.3, VI.3, and VII.3, as described herein above).
(§3) For the above analysis, a functional cell based assay under standard conditions as described herein was used, i.e. the cellular activity of the compounds with regard to the modulation of the intracellular calcium level was evaluated using cells recombinantly expressing human TRPM8 or human TRPA1. In particular, human cells recombinantly expressing either human TRPM8 or human TRPA1 were used, which cells have been contacted with a calcium-sensitive dye, wherein the cells were incubated with the compound to be tested, and receptor modulation was quantitatively detected by calcium-dependent changes in fluorescence intensity. Such a test system is disclosed, inter alia, in Behrendt H J et al., Br. J. Pharmacol. 2004, 141:737-745, which is enclosed herein by reference. Such a test system is also disclosed, inter alia, in WO 2010/026094, which is also enclosed herein by reference. However, it should be understood that any screening method and method suitable for evaluating the agonistic activity of compounds towards a channel (such as TRPM8) can be used. Suitable methods are routine and known to the skilled person.

human TRPA1 = target: T2, human TRPA1 (Homo sapiens, UniProt O75762); test: functional cell based calcium assay, cells recombinantly expressing human TRPA1; conditions: activator (agonist) of TRPA1; intracellular calcium, calcium-sensitive dye fluorescence
T2 construct: expressed in transfected cells; host or cells: HEK293 (human cells)
Text: as §1, §2, §3

T1 sequence (Q7Z2W7 whole entry): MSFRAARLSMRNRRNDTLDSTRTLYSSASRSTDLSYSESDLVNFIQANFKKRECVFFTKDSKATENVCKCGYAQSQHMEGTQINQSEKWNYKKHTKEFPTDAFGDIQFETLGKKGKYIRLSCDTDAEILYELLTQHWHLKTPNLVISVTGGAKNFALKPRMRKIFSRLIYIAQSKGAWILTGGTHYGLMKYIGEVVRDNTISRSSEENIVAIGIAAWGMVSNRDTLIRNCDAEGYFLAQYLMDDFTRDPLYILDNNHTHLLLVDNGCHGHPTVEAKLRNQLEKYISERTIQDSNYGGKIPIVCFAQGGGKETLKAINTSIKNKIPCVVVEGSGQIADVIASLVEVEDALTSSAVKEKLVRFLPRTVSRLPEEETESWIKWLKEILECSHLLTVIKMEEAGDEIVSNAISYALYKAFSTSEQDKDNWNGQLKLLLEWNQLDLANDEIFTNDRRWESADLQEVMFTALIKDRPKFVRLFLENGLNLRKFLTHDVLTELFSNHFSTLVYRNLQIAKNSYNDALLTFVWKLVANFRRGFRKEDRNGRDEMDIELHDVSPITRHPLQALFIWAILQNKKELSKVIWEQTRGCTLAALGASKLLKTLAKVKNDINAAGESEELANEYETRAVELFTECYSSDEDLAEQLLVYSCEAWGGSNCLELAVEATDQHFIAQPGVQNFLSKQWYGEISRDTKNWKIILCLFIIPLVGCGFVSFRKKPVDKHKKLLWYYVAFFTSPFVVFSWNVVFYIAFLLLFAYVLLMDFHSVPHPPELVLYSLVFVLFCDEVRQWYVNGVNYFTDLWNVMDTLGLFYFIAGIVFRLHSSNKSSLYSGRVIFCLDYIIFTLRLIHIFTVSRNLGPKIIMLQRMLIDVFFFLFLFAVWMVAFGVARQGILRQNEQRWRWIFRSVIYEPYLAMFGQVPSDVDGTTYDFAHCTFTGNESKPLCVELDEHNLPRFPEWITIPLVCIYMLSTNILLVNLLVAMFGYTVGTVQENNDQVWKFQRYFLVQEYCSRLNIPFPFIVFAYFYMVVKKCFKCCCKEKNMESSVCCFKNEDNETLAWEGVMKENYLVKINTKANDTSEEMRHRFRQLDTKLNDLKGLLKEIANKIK
T2 sequence (O75762 whole entry): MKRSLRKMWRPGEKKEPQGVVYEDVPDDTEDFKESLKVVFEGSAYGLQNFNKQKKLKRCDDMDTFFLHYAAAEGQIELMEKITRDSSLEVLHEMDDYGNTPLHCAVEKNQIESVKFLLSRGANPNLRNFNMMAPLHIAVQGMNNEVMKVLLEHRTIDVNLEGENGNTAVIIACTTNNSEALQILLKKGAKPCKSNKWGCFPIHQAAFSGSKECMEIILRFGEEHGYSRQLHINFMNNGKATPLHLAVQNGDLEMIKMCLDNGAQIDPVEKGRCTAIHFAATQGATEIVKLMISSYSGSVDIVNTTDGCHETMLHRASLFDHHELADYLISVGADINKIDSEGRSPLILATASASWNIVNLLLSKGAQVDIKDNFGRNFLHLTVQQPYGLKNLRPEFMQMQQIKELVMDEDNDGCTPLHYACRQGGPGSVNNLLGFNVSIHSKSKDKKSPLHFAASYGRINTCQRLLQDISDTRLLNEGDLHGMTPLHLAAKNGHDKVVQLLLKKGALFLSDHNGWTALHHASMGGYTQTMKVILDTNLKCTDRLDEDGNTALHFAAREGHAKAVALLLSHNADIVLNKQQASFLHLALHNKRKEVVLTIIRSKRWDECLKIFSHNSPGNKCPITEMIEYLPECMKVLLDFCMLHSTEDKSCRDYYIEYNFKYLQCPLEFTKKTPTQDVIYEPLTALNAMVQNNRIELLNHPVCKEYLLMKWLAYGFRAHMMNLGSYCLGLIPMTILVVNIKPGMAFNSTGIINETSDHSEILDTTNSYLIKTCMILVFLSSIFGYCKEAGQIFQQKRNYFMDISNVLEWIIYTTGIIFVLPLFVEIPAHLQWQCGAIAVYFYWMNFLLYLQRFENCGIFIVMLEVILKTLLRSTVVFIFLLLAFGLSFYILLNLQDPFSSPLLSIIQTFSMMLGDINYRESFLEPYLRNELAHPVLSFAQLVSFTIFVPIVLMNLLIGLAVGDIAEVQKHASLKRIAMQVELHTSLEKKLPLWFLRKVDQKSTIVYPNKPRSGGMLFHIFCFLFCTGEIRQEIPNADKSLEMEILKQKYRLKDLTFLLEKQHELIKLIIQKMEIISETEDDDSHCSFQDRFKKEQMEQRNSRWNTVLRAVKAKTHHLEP

With `COc1ccc2c(=O)c(-c3ccccc3)c(C)oc2c1` [Compound I.3, 7-methoxy-2-methyl-3-phenyl-4H-chromen-4-one] the EC50 (human TRPM8) was ~2.01 µM and 2.01 µM, the “EC50 as activator of TRPM8 times lower than EC50 as activator of TRPA1” value (human TRPM8) was “about 36 times” and the EC50 (human TRPA1) was ~72.4 µM and 72.4 µM.

`COc1ccc(OC)c(NC=C2C(=O)CC(C)(C)CC2=O)c1` [Compound II.3, 2-{[(2,5-dimethoxyphenyl)amino]methylidene}-5,5-dimethylcyclohexane-1,3-dione] was tested, and the EC50 (human TRPM8) was ~8.01 µM and 8.01 µM, the “EC50 as activator of TRPM8 times lower than EC50 as activator of TRPA1” value (human TRPM8) was “about 15.4 times” and the EC50 (human TRPA1) was ~123 µM and 123 µM.

`Cc1ccc(-c2cc(C(=O)N/N=C/c3ccncc3)[nH]n2)s1` [Compound III.3, 3-(5-methylthiophen-2-yl)-N′-[(1E)-pyridin-4-ylmethylidene]-1H-pyrazole-5-carbohydrazide] was tested, and the EC50 (human TRPM8) was ~5.27 µM and 5.27 µM, the “EC50 as activator of TRPM8 times lower than EC50 as activator of TRPA1” value (human TRPM8) was “about 21.5 times” and the EC50 (human TRPA1) was ~113 µM and 113 µM.

With `CCCc1cc(=O)[nH]c(SCC(=O)Nc2cc(Cl)ccc2Cl)n1` [Compound IV.3, N-(2,5-dichlorophenyl)-2-[(6-oxo-4-propyl-1,6-dihydropyrimidin-2-yl)sulfanyl]acetamide] the EC50 (human TRPM8) was ~4.12 µM and 4.12 µM, the “EC50 as activator of TRPM8 times lower than EC50 as activator of TRPA1” value (human TRPM8) was “about 28.6 times” and the EC50 (human TRPA1) was ~118 µM and 118 µM.

In the case of `Cc1nc2ccccc2n1CCC(=O)N1CCN(Cc2ccc3c(c2)OCO3)CC1` [Compound V.3, 1-[4-(2H-1,3-benzodioxol-5-ylmethyl)piperazin-1-yl]-3-(2-methyl-1H-1,3-benzodiazol-1-yl)propan-1-one], the EC50 (human TRPM8) is reported as ~7.53 µM and 7.53 µM, the “EC50 as activator of TRPM8 times lower than EC50 as activator of TRPA1” value (human TRPM8) is reported as “about 18.4 times” and the EC50 (human TRPA1) is reported as ~138 µM and 138 µM.

In the case of `Cc1ccc(C(=O)NCC2(c3ccccc3)CCOCC2)cc1` [Compound VI.3, 4-methyl-N-[(4-phenyloxan-4-yl)methyl]benzamide], the EC50 (human TRPM8) is reported as ~8.15 µM and 8.15 µM, the “EC50 as activator of TRPM8 times lower than EC50 as activator of TRPA1” value (human TRPM8) is reported as “about 13.2 times” and the EC50 (human TRPA1) is reported as ~108 µM and 108 µM.

For `CC(C)C(CCNCCCN(C)C)c1ccc(Cl)cc1` (stereo not drawn) [Compound VII.3, [3-(4-chlorophenyl)-4-methylpentyl][3-(dimethylamino)propyl]amine], the EC50 (human TRPM8) was ~10.9 µM and 10.9 µM, the “EC50 as activator of TRPM8 times lower than EC50 as activator of TRPA1” value (human TRPM8) was “about 5.2 times” and the EC50 (human TRPA1) was ~56.6 µM and 56.6 µM.
